Like-named read-outs stand apart in the source and are kept apart here.
Molecular target: T1, Human BCL-XL protein (N-terminal HiBiT tagged BCL-XL in HT1080 cells) (Homo sapiens, UniProt Q07817)
T1 construct: expressed in transfected cells; host or cells: HT-1080 (ATCC CCL-121), stably transduced with lentivirus pLV-UBC-N-HiBiT-BCL-XL-PGK-puro and selected with puromycin
Assay: HiBiT based degradation assay
Assay type: cell-based
Details: HT1080 cells expressing HiBiT-BCL-XL; for Ymin (6 h) / Ymin (24 h): BCL-XL degradation normalized with DMSO control; for DC50: BCL-XL degradation
Procedure, shortened: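 This HiBiT degradation assay measured loss of BCL-XL in HT1080 cells that stably express an N-terminal HiBiT-BCL-XL fusion delivered by lentivirus. Cells were added to compound-spotted 384-well plates, and luminescence was read on a PHERAstar FSX reader. Signal was expressed relative to DMSO controls, curves were fitted by four-parameter logistic regression, and for hook-shaped curves the Ymin point served as the bottom plateau when calculating EC50.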

T1 sequence (Q07817 whole entry): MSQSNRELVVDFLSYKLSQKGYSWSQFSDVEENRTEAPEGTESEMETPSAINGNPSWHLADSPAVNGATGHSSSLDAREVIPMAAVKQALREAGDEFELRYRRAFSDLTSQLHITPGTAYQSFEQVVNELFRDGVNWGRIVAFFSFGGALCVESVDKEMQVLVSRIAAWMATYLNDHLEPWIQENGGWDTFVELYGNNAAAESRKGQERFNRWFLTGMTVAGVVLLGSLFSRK

Row | Structure (SMILES) | Ymin (6 h) | Ymin (24 h) | DC50 (6 h, read-out: EC50 (6 h)) [µM] | DC50 (24 h, read-out: EC50 (24 h)) [µM]
1 | Cc1c(OCCCCCCCN2CCN(c3ccc4c(C5CCC(=O)NC5=O)nn(C)c4c3)CC2)cccc1-c1ccc(N2CCc3cccc(C(=O)Nc4nc5ccccc5s4)c3C2)nc1C(=O)O (centres unmarked) [Compound 137, 6-(8-(benzo[d]thiazol-2-ylcarbamoyl)-3,4-dihydroisoquinolin-2(1H)-yl)-3-(3-((7-(4-(3-(2,6-dioxopiperidin-3-yl)-1-methyl-1H-indazol-6-yl)piperazin-1-yl)heptyl)oxy)-2-methylphenyl)picolinic acid] | B (50% ≤ Ymin < 70%) | A (Ymin < 50%) | < 0.1 | < 0.1
2 | Cc1c(O[C@H]2CC[C@H](CCC(=O)N3CCN(c4ccc5c(C6CCC(=O)NC6=O)nn(C)c5c4)CC3)CC2)cccc1-c1ccc(N2CCc3cccc(C(=O)Nc4nc5ccccc5s4)c3C2)nc1C(=O)O (some centres unmarked) [Compound 138a, 6-(8-(benzo[d]thiazol-2-ylcarbamoyl)-3,4-dihydroisoquinolin-2(1H)-yl)-3-(3-(((1r,4r)-4-(3-(4-(3-(2,6-dioxopiperidin-3-yl)-1-methyl-1H-indazol-6-yl)piperazin-1-yl)-3-oxopropyl)cyclohexyl)oxy)-2-methylphenyl)picolinic acid] | B (50% ≤ Ymin < 70%) | B (50% ≤ Ymin < 70%) | 1 to 10 | < 0.1
3 | Cc1cc(Oc2ccc(CCC(=O)Nc3ccc4c(C5CCC(=O)NC5=O)nn(C)c4c3)cc2)ccc1-c1ccc(N2CCc3cccc(C(=O)Nc4nc5ccccc5s4)c3C2)nc1C(=O)O (centres unmarked) [Compound 139, 6-(8-(benzo[d]thiazol-2-ylcarbamoyl)-3,4-dihydroisoquinolin-2(1H)-yl)-3-(4-(4-(3-((3-(2,6-dioxopiperidin-3-yl)-1-methyl-1H-indazol-6-yl)amino)-3-oxopropyl)phenoxy)-2-methylphenyl)picolinic acid] | B (50% ≤ Ymin < 70%) | B (50% ≤ Ymin < 70%) | 0.1 to 1 | 0.1 to 1
4 | Cc1c(OCCCN2CCN(CC(=O)N3CCN(c4ccc5c(C6CCC(=O)NC6=O)nn(C)c5c4)CC3)CC2)cccc1-c1ccc(N2CCc3cccc(C(=O)Nc4nc5ccccc5s4)c3C2)nc1C(=O)O (centres unmarked) [Compound 140, 6-(8-(Benzo[d]thiazol-2-ylcarbamoyl)-3,4-dihydroisoquinolin-2(1H)-yl)-3-(3-(3-(4-(2-(4-(3-(2,6-dioxopiperidin-3-yl)-1-methyl-1H-indazol-6-yl)piperazin-1-yl)-2-oxoethyl)piperazin-1-yl)propoxy)-2-methylphenyl)picolinic acid] | A (Ymin < 50%) | A (Ymin < 50%) | < 0.1 | < 0.1
5 | Cc1c(OCCN2CCN(CC(=O)N3CCN(c4ccc5c(C6CCC(=O)NC6=O)nn(C)c5c4)CC3)CC2)cccc1-c1ccc(N2CCc3cccc(C(=O)Nc4nc5ccccc5s4)c3C2)nc1C(=O)O (centres unmarked) [Compound 141, 6-(8-(benzo[d]thiazol-2-ylcarbamoyl)-3,4-dihydroisoquinolin-2(1H)-yl)-3-(3-(2-(4-(2-(4-(3-(2,6-dioxopiperidin-3-yl)-1-methyl-1H-indazol-6-yl)piperazin-1-yl)-2-oxoethyl)piperazin-1-yl)ethoxy)-2-methylphenyl)picolinic acid] | B (50% ≤ Ymin < 70%) | A (Ymin < 50%) | < 0.1 | < 0.1
6 | Cc1c(OCCC2CCN(CC(=O)N3CCN(c4ccc5c(C6CCC(=O)NC6=O)nn(C)c5c4)CC3)CC2)cccc1-c1ccc(N2CCc3cccc(C(=O)Nc4nc5ccccc5s4)c3C2)nc1C(=O)O (centres unmarked) [Compound 143, 6-(8-(benzo[d]thiazol-2-ylcarbamoyl)-3,4-dihydroisoquinolin-2(1H)-yl)-3-(3-(2-(1-(2-(4-(3-(2,6-dioxopiperidin-3-yl)-1-methyl-1H-indazol-6-yl)piperazin-1-yl)-2-oxoethyl)piperidin-4-yl)ethoxy)-2-methylphenyl)picolinic acid] | A (Ymin < 50%) | A (Ymin < 50%) | < 0.1 | < 0.1
7 | Cc1c(OCCC2CCN(CC(=O)N3CCN(c4cccc5c(C6CCC(=O)NC6=O)nn(C)c45)CC3)CC2)cccc1-c1ccc(N2CCc3cccc(C(=O)Nc4nc5ccccc5s4)c3C2)nc1C(=O)O (centres unmarked) [Compound 145, 6-(8-(benzo[d]thiazol-2-ylcarbamoyl)-3,4-dihydroisoquinolin-2(1H)-yl)-3-(3-(2-(1-(2-(4-(3-(2,6-dioxopiperidin-3-yl)-1-methyl-1H-indazol-7-yl)piperazin-1-yl)-2-oxoethyl)piperidin-4-yl)ethoxy)-2-methylphenyl)picolinic acid] | B (50% ≤ Ymin < 70%) | A (Ymin < 50%) | < 0.1 | < 0.1
8 | Cc1c(O[C@H]2CC[C@@H](CCC(=O)N3CCN(c4cccc5c(C6CCC(=O)NC6=O)nn(C)c45)CC3)CC2)cccc1-c1ccc(N2CCc3cccc(C(=O)Nc4nc5ccccc5s4)c3C2)nc1C(=O)O (some centres unmarked) [Compound 146b, 6-(8-(benzo[d]thiazol-2-ylcarbamoyl)-3,4-dihydroisoquinolin-2(1H)-yl)-3-(3-(((1s,4s)-4-(3-(4-(3-(2,6-dioxopiperidin-3-yl)-1-methyl-1H-indazol-7-yl)piperazin-1-yl)-3-oxopropyl)cyclohexyl)oxy)-2-methylphenyl)picolinic acid] | – | B (50% ≤ Ymin < 70%) | – | 0.1 to 1

Results, then the molecule that gave them:

Row | Ymin (6 h) | Ymin (24 h) | DC50 (6 h, read-out: EC50 (6 h)) [µM] | DC50 (24 h, read-out: EC50 (24 h)) [µM] | Structure (SMILES)
9 | – | B (50% ≤ Ymin < 70%) | – | < 0.1 | Cc1c(O[C@H]2CC[C@@H](CCC(=O)N3CCN(c4ccc5c(C6CCC(=O)NC6=O)nn(C)c5c4)CC3)CC2)cccc1-c1ccc(N2CCc3cccc(C(=O)Nc4nc5ccccc5s4)c3C2)nc1C(=O)O (some centres unmarked) [Compound 138b, 6-(8-(benzo[d]thiazol-2-ylcarbamoyl)-3,4-dihydroisoquinolin-2(1H)-yl)-3-(3-(((1s,4s)-4-(3-(4-(3-(2,6-dioxopiperidin-3-yl)-1-methyl-1H-indazol-6-yl)piperazin-1-yl)-3-oxopropyl)cyclohexyl)oxy)-2-methylphenyl)picolinic acid]
10 | A (Ymin < 50%) | A (Ymin < 50%) | < 0.1 | < 0.1 | Cc1c(OCCCC2CCN(CC(=O)N3CCN(c4ccc5c(C6CCC(=O)NC6=O)nn(C)c5c4)CC3)CC2)cccc1-c1ccc(N2CCc3cccc(C(=O)Nc4nc5ccccc5s4)c3C2)nc1C(=O)O (centres unmarked) [Compound 142, 6-(8-(benzo[d]thiazol-2-ylcarbamoyl)-3,4-dihydroisoquinolin-2(1H)-yl)-3-(3-(3-(1-(2-(4-(3-(2,6-dioxopiperidin-3-yl)-1-methyl-1H-indazol-6-yl)piperazin-1-yl)-2-oxoethyl)piperidin-4-yl)propoxy)-2-methylphenyl)picolinic acid]
11 | A (Ymin < 50%) | A (Ymin < 50%) | < 0.1 | < 0.1 | Cc1c(OCCCC2CCN(CC(=O)N3CCN(c4cccc5c(C6CCC(=O)NC6=O)nn(C)c45)CC3)CC2)cccc1-c1ccc(N2CCc3cccc(C(=O)Nc4nc5ccccc5s4)c3C2)nc1C(=O)O (centres unmarked) [Compound 144, 6-[8-(1,3-benzothiazol-2-ylcarbamoyl)-3,4-dihydro-1H-isoquinolin-2-yl]-3-[3-[3-[1-[2-[4-[3-(2,6-dioxo-3-piperidyl)-1-methyl-indazol-7-yl]piperazin-1-yl]-2-oxo-ethyl]-4-piperidyl]propoxy]-2-methyl-phenyl]pyridine-2-carboxylic acid]
12 | A (Ymin < 50%) | A (Ymin < 50%) | 0.1 to 1 | < 0.1 | Cc1c(O[C@H]2CC[C@H](CCC(=O)N3CCN(c4cccc5c(C6CCC(=O)NC6=O)nn(C)c45)CC3)CC2)cccc1-c1ccc(N2CCc3cccc(C(=O)Nc4nc5ccccc5s4)c3C2)nc1C(=O)O (some centres unmarked) [Compound 146a, 6-(8-(benzo[d]thiazol-2-ylcarbamoyl)-3,4-dihydroisoquinolin-2(1H)-yl)-3-(3-(((1r,4r)-4-(3-(4-(3-(2,6-dioxopiperidin-3-yl)-1-methyl-1H-indazol-7-yl)piperazin-1-yl)-3-oxopropyl)cyclohexyl)oxy)-2-methylphenyl)picolinic acid]
13 | B (50% ≤ Ymin < 70%) | A (Ymin < 50%) | < 0.1 | < 0.1 | Cc1c(O[C@H]2CC[C@H](CCCN3CCN(c4cccc5c(C6CCC(=O)NC6=O)nn(C)c45)CC3)CC2)cccc1-c1ccc(N2CCc3cccc(C(=O)Nc4nc5ccccc5s4)c3C2)nc1C(=O)O (some centres unmarked) [Compound 147a, 6-(8-(benzo[d]thiazol-2-ylcarbamoyl)-3,4-dihydroisoquinolin-2(1H)-yl)-3-(3-(((1s,4r)-4-(3-(4-(3-(2,6-dioxopiperidin-3-yl)-1-methyl-1H-indazol-7-yl)piperazin-1-yl)propyl)cyclohexyl)oxy)-2-methylphenyl)picolinic acid]
14 | – | B (50% ≤ Ymin < 70%) | – | < 0.1 | Cc1c(O[C@H]2CC[C@@H](CCCN3CCN(c4cccc5c(C6CCC(=O)NC6=O)nn(C)c45)CC3)CC2)cccc1-c1ccc(N2CCc3cccc(C(=O)Nc4nc5ccccc5s4)c3C2)nc1C(=O)O (some centres unmarked) [Compound 147b, 6-(8-(benzo[d]thiazol-2-ylcarbamoyl)-3,4-dihydroisoquinolin-2(1H)-yl)-3-(3-(((1r,4s)-4-(3-(4-(3-(2,6-dioxopiperidin-3-yl)-1-methyl-1H-indazol-7-yl)piperazin-1-yl)propyl)cyclohexyl)oxy)-2-methylphenyl)picolinic acid]

Source: US20240238423A9, “TETRAHYDROISOQUINOLINE HETEROBIFUNCTIONAL BCL-XL DEGRADERS” (Treeline Biosciences, Inc., priority 2022, published 2024)
